According to US20100056526A1, “HETEROMONOCYCLIC COMPOUND AND USE THEREOF” (Takeda Pharmaceutical Company Limited, priority 2006, published 2010):
Structures can show the parent of a compound that is named as a salt. Where two headings read alike, the source gives them in different places.

Legend:
[1] = target: T1, PPARγ (Homo sapiens, UniProt P37231); experiment: Evaluation of PPARγ activating action (luciferase reporter in PPARγ:RXRα:4ERPP/CHO-K1 cells); assay type: cell-based; details: CHO-K1, 24 h, read-out: PPARγ activating action (activation % (10^−6 M))
T1 construct: expressed in transfected cells; host or cells: CHO-K1
T1 sequence (P37231 1-477 isoform P37231-2): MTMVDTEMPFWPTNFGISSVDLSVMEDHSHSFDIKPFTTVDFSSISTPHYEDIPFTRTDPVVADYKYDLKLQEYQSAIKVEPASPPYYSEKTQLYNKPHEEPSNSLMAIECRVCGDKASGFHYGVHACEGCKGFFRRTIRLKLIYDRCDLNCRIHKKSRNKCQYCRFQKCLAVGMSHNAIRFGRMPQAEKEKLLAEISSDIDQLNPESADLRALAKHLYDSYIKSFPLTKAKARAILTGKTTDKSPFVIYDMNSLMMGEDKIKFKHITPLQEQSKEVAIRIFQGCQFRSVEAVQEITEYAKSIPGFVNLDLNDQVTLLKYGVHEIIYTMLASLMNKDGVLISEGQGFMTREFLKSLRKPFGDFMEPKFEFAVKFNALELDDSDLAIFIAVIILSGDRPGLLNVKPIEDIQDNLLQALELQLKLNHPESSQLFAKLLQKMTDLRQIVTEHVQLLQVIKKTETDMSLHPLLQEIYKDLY
T1 sequence (P19793 1-462 partner): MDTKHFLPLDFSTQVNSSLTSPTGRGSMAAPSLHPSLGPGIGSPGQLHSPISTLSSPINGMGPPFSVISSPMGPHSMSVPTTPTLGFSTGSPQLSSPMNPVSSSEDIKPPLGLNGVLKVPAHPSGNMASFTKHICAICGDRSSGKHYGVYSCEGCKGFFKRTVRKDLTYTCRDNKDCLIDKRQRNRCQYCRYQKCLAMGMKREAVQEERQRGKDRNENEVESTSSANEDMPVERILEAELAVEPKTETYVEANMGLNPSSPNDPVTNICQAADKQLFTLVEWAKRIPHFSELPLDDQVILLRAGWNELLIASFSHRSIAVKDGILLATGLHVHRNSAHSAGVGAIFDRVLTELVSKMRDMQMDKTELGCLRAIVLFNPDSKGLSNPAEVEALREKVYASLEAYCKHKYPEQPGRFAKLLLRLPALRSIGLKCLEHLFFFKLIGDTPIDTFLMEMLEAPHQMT
How it was run: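 Activity is expressed as percent, where vehicle gives 0% and 1 μM compound X gives 100%, based on luciferase luminescence. Reporter CHO-K1 cells co-expressing PPARγ:RXRα with a 4ERPP-driven luciferase were incubated with test compound for one day at 37 °C in medium with 0.1% fatty acid-free BSA.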

[2] = target: T2, human AT1 receptor (Homo sapiens, UniProt P30556); experiment: Binding assay using human AT1 receptor-expressing CHO-K1 cell membrane fraction ([125I]-angiotensin II); details: 22.5 pM [125I]-angiotensin II, 9 μg AT1 membrane, 1 hr room temperature; read-out: AT1 receptor binding inhibitory action (IC50 (nM))
T2 construct: expressed in transfected cells; host or cells: CHO-K1
T2 sequence (P30556 1-359): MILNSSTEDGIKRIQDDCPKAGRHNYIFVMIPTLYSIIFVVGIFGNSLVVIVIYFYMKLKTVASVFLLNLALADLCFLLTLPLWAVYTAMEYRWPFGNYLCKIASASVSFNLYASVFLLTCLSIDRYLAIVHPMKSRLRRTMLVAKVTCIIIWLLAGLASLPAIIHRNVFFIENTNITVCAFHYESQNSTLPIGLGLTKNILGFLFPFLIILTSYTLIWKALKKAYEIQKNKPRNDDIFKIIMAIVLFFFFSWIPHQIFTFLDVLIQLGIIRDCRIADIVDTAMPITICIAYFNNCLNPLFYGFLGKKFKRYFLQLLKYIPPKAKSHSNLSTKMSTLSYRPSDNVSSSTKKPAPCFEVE
How it was run: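 Radioligand displacement: test compound competed with [125I]-angiotensin II (22.5 pM) on stable CHO-K1 AT1 membrane fraction, 1 hr, room temperature, Tris pH 7.4/MgCl2 buffer ± 0.3 mg/mL BSA. Filtration then scintillation counting; 1 μM CV-11974 defined nonspecific binding. Values are IC50s.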

[3] = test compound 10^−6 M, luciferase activity relative to control compound X (1 μM) = 100%, non-administration group = 0%

Compound	activation at 1 µM [1, 3]	IC50 [2]	activation at 1 µM [1]
CCCc1nc(C)n(-c2ccc3c(c2)CCC(C)(C)O3)c(=O)c1Cc1ccc(-c2ccccc2-c2noc(=O)[nH]2)cc1 [Example 131, 3-(2,2-dimethyl-3,4-dihydro-2H-chromen-6-yl)-2-methyl-5-{[2′-(5-oxo-4,5-dihydro-1,2,4-oxadiazol-3-yl)biphenyl-4-yl]methyl}-6-propylpyrimidin-4(3H)-one]	34.2%	2.2 nM	
CCCc1nc(C)c(Cc2ccccc2)c(=O)n1Cc1ccc(-c2ccccc2-c2noc(=O)[nH]2)cc1 [Example 287, 5-benzyl-6-methyl-3-{[2′-(5-oxo-4,5-dihydro-1,2,4-oxadiazol-3-yl)biphenyl-4-yl]methyl}-2-propylpyrimidin-4(3H)-one]	40.9%	1.8 nM	
CCCc1nc(C)c(-c2ccc(OC(C)(C)C)cc2)c(=O)n1Cc1ccc(-c2ccccc2-c2noc(O)n2)cc1F [Example 475, 5-(4-tert-butoxyphenyl)-3-{[3-fluoro-2′-(5-oxo-4,5-dihydro-1,2,4-oxadiazol-3-yl)biphenyl-4-yl]methyl}-6-methyl-2-propylpyrimidin-4(3H)-one]	28.7%	2 nM	
CCCc1nc(CC)c(Oc2ccc(CC)cc2)c(=O)n1Cc1ccc(-c2ccccc2-c2noc(O)n2)cc1 [Example 480, 6-ethyl-5-(4-ethylphenoxy)-3-{[2′-(5-oxo-4,5-dihydro-1,2,4-oxadiazol-3-yl)biphenyl-4-yl]methyl}-2-propylpyrimidin-4(3H)-one]	30.8%	3.2 nM	
CCCc1nc(C)n(-c2ccc(OC(C)C)cc2)c(=O)c1Cc1ccc(-c2ccccc2-c2noc(=O)[nH]2)c(OC)c1 [Example 400, 3-(4-isopropoxyphenyl)-5-{[2-methoxy-2′-(5-oxo-4,5-dihydro-1,2,4-oxadiazol-3-yl)biphenyl-4-yl]methyl}-2-methyl-6-propylpyrimidin-4(3H)-one]	21.3%	2.8 nM	
CCCCc1nc(C)n(Cc2c(F)cccc2F)c(=O)c1Cc1ccc(-c2ccccc2-c2noc(=O)[nH]2)cc1 [Example 165, 6-butyl-3-(2,6-difluorobenzyl)-2-methyl-5-{[2′-(5-oxo-4,5-dihydro-1,2,4-oxadiazol-3-yl)biphenyl-4-yl]methyl}pyrimidin-4(3H)-one]	59%	1.7 nM	
CCCc1nc(CC)n(-c2ccc(O[C@@H]3C[C@@H](C)O[C@@H](C)C3)cc2)c(=O)c1Cc1ccc(-c2ccccc2-c2noc(=O)[nH]2)cc1 [Example 417, 3-(4-{[(2R,4s,6S)-2,6-dimethyltetrahydro-2H-pyran-4-yl]oxy}phenyl)-2-ethyl-5-{[2′-(5-oxo-4,5-dihydro-1,2,4-oxadiazol-3-yl)biphenyl-4-yl]methyl}-6-propylpyrimidin-4(3H)-one]	33.7%	1.6 nM	
CCCc1nc(CC)n(-c2ccc(OC3CCOCC3)nc2)c(=O)c1Cc1ccc(-c2ccccc2-c2noc(=O)[nH]2)cc1 [Example 406, 2-ethyl-5-{[2′-(5-oxo-4,5-dihydro-1,2,4-oxadiazol-3-yl)biphenyl-4-yl]methyl}-6-propyl-3-[6-(tetrahydro-2H-pyran-4-yloxy)pyridin-3-yl]pyrimidin-4(3H)-one]	41.9%	1.5 nM	
CCCCc1nc(C(C)C)n(-c2ccc3c(c2)CCO3)c(=O)c1Cc1ccc(-c2ccccc2-c2noc(=O)[nH]2)cc1 [Example 118, 6-butyl-3-(2,3-dihydro-1-benzofuran-5-yl)-2-isopropyl-5-{[2′-(5-oxo-4,5-dihydro-1,2,4-oxadiazol-3-yl)biphenyl-4-yl]methyl}pyrimidin-4(3H)-one]	50.2%	1.8 nM	
CCCc1nc(C)n(-c2ccc3c(c2)C(O)CC(C)(C)O3)c(=O)c1Cc1ccc(-c2ccccc2-c2noc(=O)[nH]2)cc1 (stereo not drawn) [Example 144, 3-(4-hydroxy-2,2-dimethyl-3,4-dihydro-2H-chromen-6-yl)-2-methyl-5-{[2′-(5-oxo-4,5-dihydro-1,2,4-oxadiazol-3-yl)biphenyl-4-yl]methyl}-6-propylpyrimidin-4(3H)-one]	22.7%	1.5 nM	
CCCCc1nc(C)n(Cc2ccc(OC)cc2)c(=O)c1Cc1ccc(-c2ccccc2-c2noc(=O)[nH]2)cc1 [Example 58, 6-butyl-3-(4-methoxybenzyl)-2-methyl-5-{[2′-(5-oxo-4,5-dihydro-1,2,4-oxadiazol-3-yl)biphenyl-4-yl]methyl}pyrimidin-4(3H)-one]	55.1%	1.5 nM	
CCCCc1nc(C)n(-c2ccc(C)c(C)c2)c(=O)c1Cc1ccc(-c2ccccc2-c2noc(=O)[nH]2)cc1 [Example 202, 6-butyl-3-(3,4-dimethylphenyl)-2-methyl-5-{[2′-(5-oxo-4,5-dihydro-1,2,4-oxadiazol-3-yl)biphenyl-4-yl]methyl}pyrimidin-4(3H)-one]	25.3%	1.5 nM	
CCCc1nc(C)n(-c2ccc3c(c2)CC(C)(C)O3)c(=O)c1Cc1ccc(-c2ccccc2-c2noc(O)n2)c(F)c1 [Example 402, 3-(2,2-dimethyl-2,3-dihydro-1-benzofuran-5-yl)-5-{[2-fluoro-2′-(5-oxo-4,5-dihydro-1,2,4-oxadiazol-3-yl)biphenyl-4-yl]methyl}-2-methyl-6-propylpyrimidin-4(3H)-one]	24.1%	1.8 nM	
CCCc1nc(CC)n(-c2ccc(OC(C)C)c(F)c2)c(=O)c1Cc1ccc(-c2ccccc2-c2noc(=O)[nH]2)cc1 [Example 363, 2-ethyl-3-(3-fluoro-4-isopropoxyphenyl)-5-{[2′-(5-oxo-4,5-dihydro-1,2,4-oxadiazol-3-yl)biphenyl-4-yl]methyl}-6-propylpyrimidin-4(3H)-one]	53.7%	2.1 nM	
CCCc1nc(C)c(-c2ccc(OC(C)C)nc2)c(=O)n1Cc1ccc(-c2ccccc2-c2noc(=O)[nH]2)cc1F [Example 482, 3-{[3-fluoro-2′-(5-oxo-4,5-dihydro-1,2,4-oxadiazol-3-yl)biphenyl-4-yl]methyl}-5-(6-isopropoxypyridin-3-yl)-6-methyl-2-propylpyrimidin-4(3H)-one]	30.4%	1.9 nM	
CCCc1nc(CC)n(-c2ccc3c(c2)CC(C)O3)c(=O)c1Cc1ccc(-c2ccccc2-c2noc(O)n2)cc1 (stereo not drawn) [Example 312, 2-ethyl-3-(2-methyl-2,3-dihydro-1-benzofuran-5-yl)-5-{[2′-(5-oxo-4,5-dihydro-1,2,4-oxadiazol-3-yl)biphenyl-4-yl]methyl}-6-propylpyrimidin-4(3H)-one potassium salt]		1.6 nM	50.3%
CCCCc1nc(C)n(CC2CCCCC2)c(=O)c1Cc1ccc(-c2ccccc2-c2noc(=O)[nH]2)cc1 [Example 48, 6-butyl-3-(cyclohexylmethyl)-2-methyl-5-{[2′-(5-oxo-4,5-dihydro-1,2,4-oxadiazol-3-yl)biphenyl-4-yl]methyl}pyrimidin-4(3H)-one]	68.8%	1.8 nM	
CCOc1nc(C)c(Cc2ccccc2)c(=O)n1Cc1ccc(-c2ccccc2-c2noc(=O)[nH]2)cc1 [Example 4, 5-benzyl-2-ethoxy-6-methyl-3-{[2′-(5-oxo-4,5-dihydro-1,2,4-oxadiazol-3-yl)biphenyl-4-yl]methyl}pyrimidin-4(3H)-one]	35.8%	1.9 nM	
